# Source: patent US20240376114A1, “NUCLEAR TRANSPORT MODULATORS AND USES THEREOF” (Karyopharm Therapeutics Inc., priority 2011, published 2024)
# Assay: CellTiter 96 AQueous One Solution (MTS) cell proliferation assay
# Assay type: cell-based
# Conditions: human, MM.1S multiple myeloma cells; MM.1S cells, 72 h treatment; read-out: Cytotoxicity [EC50]
# Excerpt: The CellTiter 96® AQueous One Solution cell proliferation assay (Promega) was used on MM.1S multiple myeloma cell line to study the cytotoxic and cytostatic properties of the compounds. The assay is based on the cleavage of the tetrazolium salt, MTS, in the presence of an electron-coupling reagent PES (phenazine ethosulfate). The MTS tetrazolium compound is bioreduced by cells into a colored formazan product that is soluble in tissue culture medium. This conversion is presumably accomplished by NADPH or NADH produced by dehydrogenase enzymes in metabolically active cells. Assays are performed by adding a small amount of the CellTiter 96® AQueous One solution reagent directly to culture wells, incubating for 1-4 hours and then recording the absorbance at 490 nm with a 96-well plate reader.
# The cells were seeded at 5×10^3 to 1.5×10^4 cells (depending on cell type) in each well of a 96-well plate in 100 μL of fresh culture medium and adherent cells were allowed to attach overnight. The stock solutions of the compounds were diluted in cell culture medium to obtain eight concentrations of each drug, ranging from 1 nM to 30 μM and DMSO at less than 1% v/v was used as a negative control. The resulting drug solutions were transferred onto the cells. After 72 h of treatment, 20 μl of CellTiter 96® AQueous reagent was added into each well of the 96-well assay plates and the plate was incubated at 37° C. for 1-4 hours in a humidified, 5% CO2 atmosphere. Then the absorbance of each well was recorded at 490 nm using a 96-well plate reader. In most cases, the assay was performed in triplicate and the results were presented as half maximal inhibitory concentration (IC50). Optical density versus compound concentration was plotted and analyzed using non-linear regression equations (IDBS XLfit) and the IC50 for each compound was calculated.
row,Compound,EC50 at 72 h [nM]
1,"NC1C2CN(C(=O)/C=C\n3cnc(-c4cc(C(F)(F)F)cc(C(F)(F)F)c4)n3)CC12 (stereo not drawn) [Compound 57, (Z)-1-(6-amino-3-azabicyclo[3.1.0]hexan-3-yl)-3-(3-(3,5-bis(trifluoromethyl)phenyl)-1H-1,2,4-triazol-1-yl)prop-2-en-1-one]",< 1000
2,"O=C(/C=C\n1cnc(-c2cc(C(F)(F)F)cc(C(F)(F)F)c2)c1)N1CC(F)(F)C1 [Compound 16, (Z)-3-(4-(3,5-bis(trifluoromethyl)phenyl)-1H-imidazol-1-yl)-1-(3,3-difluoroazetidin-1-yl)prop-2-en-1-one]",< 1000
3,"O=C1CC(c2cc(C(F)(F)F)cc(C(F)(F)F)c2)CN1/C=C\C(=O)N1CC(F)(F)C1 (stereo not drawn) [Compound 64, (Z)-4-(3,5-bis(trifluoromethyl)phenyl)-1-(3-(3,3-difluoroazetidin-1-yl)-3-oxoprop-1-enyl)pyrrolidin-2-one]",> 10000
4,"CN1CCC(CNC(=O)/C=C\n2cnc(-c3cc(C(F)(F)F)cc(C(F)(F)F)c3)n2)CC1 [Compound 26, (Z)-3-(3-(3,5-bis(trifluoromethyl)phenyl)-1H-1,2,4-triazol-1-yl)-N-((1-methylpiperidin-4-yl)methyl)acrylamide]",< 1000
5,"O=C(/C=C\n1cnc(-c2cc(C(F)(F)F)c(Cl)c(C(F)(F)F)c2)n1)N1CC(F)(F)C1 [Compound 59, (Z)-3-(3-(4-chloro-3,5-bis(trifluoromethyl)phenyl)-1H-1,2,4-triazol-1-yl)-1-(3,3-difluoroazetidin-1-yl)prop-2-en-1-one]",< 1000
6,"O=C(/C=C\n1cnc(-c2cc(C(F)(F)F)cc(C(F)(F)F)c2)n1)N1CCCC(F)(F)C1 [Example 5, (Z)-3-(3-(3,5-bis(trifluoromethyl)phenyl)-1H-1,2,4-triazol-1-yl)-1-(3,3-difluoropiperidin-1-yl)prop-2-en-1-one]",1000 to 10000
7,"[2H]/C(=C/n1nc(-c2cc(C(F)(F)F)cc(C(F)(F)F)c2)nc1[2H])C(=O)N1CC(F)(F)C1 [Compound 40, D2-(Z)-3-(3-(3,5-bis(trifluoromethyl)phenyl)-1H-1,2,4-triazol-1-yl)-1-(3,3-difluoroazetidin-1-yl)prop-2-en-1-one]",< 1000
8,"CCN(C(=O)/C=C\n1cnc(-c2cc(C(F)(F)F)cc(C(F)(F)F)c2)n1)C(C)c1cccnc1 (stereo not drawn) [Example 10, (Z)-3-(3-(3,5-bis(trifluoromethyl)phenyl)-1H-1,2,4-triazol-1-yl)-N-ethyl-N-(1-(pyridin-3-yl)ethyl)acrylamide]",1000 to 10000
9,"CN1CCC(CNC(=O)/C=C\n2cnc(-c3cc(C(F)(F)F)cc(C(F)(F)F)c3)n2)C1 (stereo not drawn) [Compound 30, (Z)-3-(3-(3,5-bis(trifluoromethyl)phenyl)-1H-1,2,4-triazol-1-yl)-N-((1-methylpyrrolidin-3-yl)methyl)acrylamide]",< 1000
10,"O=C(/C=C\n1ccc(-c2cc(C(F)(F)F)cc(C(F)(F)F)c2)n1)N1CC(F)(F)C1 [Compound 35, (Z)-3-(3-(3,5-bis(trifluoromethyl)phenyl)-1H-pyrazol-1-yl)-1-(3,3-difluoroazetidin-1-yl)prop-2-en-1-one]",< 1000
11,"COC(=O)C1(F)CN(C(=O)/C=C\n2cnc(-c3cc(C(F)(F)F)cc(C(F)(F)F)c3)n2)C1 [Compound 61, (Z)-methyl 1-(3-(3-(3,5-bis(trifluoromethyl)phenyl)-1H-1,2,4-triazol-1-yl)acryloyl)-3-fluoroazetidine-3-carboxylate]",< 1000
12,"O=C(/C=C\c1n[nH]c(-c2cc(C(F)(F)F)cc(C(F)(F)F)c2)n1)N1CC(F)(F)C1 [Compound 12, (Z)-3-(5-(3,5-bis(trifluoromethyl)phenyl)-4H-1,2,4-triazol-3-yl)-1-(3,3-difluoroazetidin-1-yl)prop-2-en-1-one]",1000 to 10000
13,"O=C(/C=C\N1CCC(c2cc(C(F)(F)F)cc(C(F)(F)F)c2)C1)N1CC(F)(F)C1 (stereo not drawn) [Compound 43, (Z)-3-(3-(3,5-bis(trifluoromethyl)phenyl)pyrrolidin-1-yl)-1-(3,3-difluoroazetidin-1-yl)prop-2-en-1-one]",> 10000
14,"O=C1CC(c2cc(C(F)(F)F)cc(C(F)(F)F)c2)CN1/C=C/C(=O)N1CC(F)(F)C1 (stereo not drawn) [Compound 44, (E)-4-(3,5-bis(trifluoromethyl)phenyl)-1-(3-(3,3-difluoroazetidin-1-yl)-3-oxoprop-1-enyl)pyrrolidin-2-one]",> 10000
15,"CN(C)CC1(F)CN(C(=O)/C=C\n2cnc(-c3cc(C(F)(F)F)cc(C(F)(F)F)c3)n2)C1 [Compound 63, (Z)-3-(3-(3,5-bis(trifluoromethyl)phenyl)-1H-1,2,4-triazol-1-yl)-1-(3-((dimethylamino)methyl)-3-fluoroazetidin-1-yl)prop-2-en-1-one]",< 1000
16,"N#CC1CN(C(=O)/C=C\n2cnc(-c3cc(C(F)(F)F)cc(C(F)(F)F)c3)n2)C1 [Compound 54, (Z)-1-(3-(3-(3,5-bis(trifluoromethyl)phenyl)-1H-1,2,4-triazol-1-yl)acryloyl)azetidine-3-carbonitrile]",< 1000
17,"O=C(/C=C\n1cnc(-c2cc(C(F)(F)F)cc(C(F)(F)F)c2)n1)N1CC(c2ccccn2)C1 [Compound 24, (Z)-3-(3-(3,5-bis(trifluoromethyl)phenyl)-1H-1,2,4-triazol-1-yl)-1-(3-(pyridin-2-yl)azetidin-1-yl)prop-2-en-1-one]",< 1000
18,"O=C(O)C1CN(C(=O)/C=C\n2cnc(-c3cc(C(F)(F)F)cc(C(F)(F)F)c3)n2)C1 [Compound 55, (Z)-1-(3-(3-(3,5-bis(trifluoromethyl)phenyl)-1H-1,2,4-triazol-1-yl)acryloyl)azetidine-3-carboxylic acid]",1000 to 10000
19,"O=C(/C=C\n1cnc(-c2cc(C(F)(F)F)cc(C(F)(F)F)c2)n1)N1CC(F)(C(=O)O)C1 [Compound 62, (Z)-1-(3-(3-(3,5-bis(trifluoromethyl)phenyl)-1H-1,2,4-triazol-1-yl)acryloyl)-3-fluoroazetidine-3-carboxylic acid]",1000 to 10000
20,"O=C(/C=C\n1cnc(-c2cc(C(F)(F)F)cc(C(F)(F)F)c2)n1)NCC1CCCNC1 (stereo not drawn) [Compound 19, (Z)-3-(3-(3,5-bis(trifluoromethyl)phenyl)-1H-1,2,4-triazol-1-yl)-N-(piperidin-3-ylmethyl)acrylamide]",1000 to 10000
21,"Cc1ncc(CNC(=O)/C=C\n2cnc(-c3cc(C(F)(F)F)cc(C(F)(F)F)c3)n2)cn1 [Compound 13, (Z)-3-(3-(3,5-bis(trifluoromethyl)phenyl)-1H-1,2,4-triazol-1-yl)-N-((2-methylpyrimidin-5-yl)methyl)acrylamide]",1000 to 10000
22,"O=C(/C=C\n1cnc(-c2cc(C(F)(F)F)cc(C(F)(F)F)c2)n1)N1CC(O)C1 [Compound 53, (Z)-3-(3-(3,5-bis(trifluoromethyl)phenyl)-1H-1,2,4-triazol-1-yl)-1-(3-hydroxyazetidine-1-yl)prop-2-en-1-one]",< 1000
23,"O=C(/C=C\n1cnc(-c2cc(O)cc(C(F)(F)F)c2)n1)N1CC(F)(F)C1 [Example 3, (Z)-1-(3,3-difluoroazetidin-1-yl)-3-(3-(3-hydroxy-5-(trifluoromethyl)phenyl)-1H-1,2,4-triazol-1-yl)prop-2-en-1-one]",< 1000
24,"CC(NC(=O)/C=C\n1cnc(-c2cc(C(F)(F)F)cc(C(F)(F)F)c2)n1)c1cnccn1 (stereo not drawn) [Compound 29, (Z)-3-(3-(3,5-bis(trifluoromethyl)phenyl)-1H-1,2,4-triazol-1-yl)-N-(1-(pyrazin-2-yl)ethyl)acrylamide]",1000 to 10000
